The ED50 is the dose that gives a 50% effect, or the effect in half of the subjects. By EC50 is commonly meant the concentration that produces a half-maximal response. Higher therefore signals a less potent agent. In general, inhibition refers to the share of the control response that was lost under treatment.

Each structure is given as a SMILES string. Where a name gives a salt, the structure may show the parent alone.

For assay [1] the following is noted: in vivo; cited from earlier work.
Assay [2] deals with uptake of 14C-5-hydroxytryptamine. Description: Inhibition of uptake of 14C-5-HT in mouse midbrain slices after in vivo (i.p.) administration. The settings on record: i.p. half an hour before killing, dose producing 50 percent decrease of active uptake; for ED50: Mus musculus, ip, 0.5 h. The procedure:
(§1) It is not possible by experimental means to induce depressions in laboratory animals. In order to evaluate a possible anti-depressive effect of new substances biochemical-pharmacological test methods must be resorted to. One such method, which seems to give a good indication of the potential anti-depressive effects of the test substances, is described in Europ.
(§2) The test substances were administered intraperitoneally half an hour before the animals were killed. […] The incubation time was 5 minutes with 5 minutes of preincubation before the labelled amines were added. The slices were dissolved in Soluene® and the amounts of radio-active amines taken up were determined by liquid scintillation. […] Active uptake is defined as that part of the radioactive uptake which is inhibited by a high concentration of cocaine.

Assay [3] shares this test system. The assay can be described thus: Inhibition of uptake of 14C-5-HT in mouse midbrain slices, in vitro. To be noted: 5 minutes preincubation, 5 minutes incubation. The class given is biochemical. The protocol: as §1, §2
In the in vitro method, slices of mouse midbrain were preincubated for 5 minutes with a solution of the compound to be tested and then incubated as described above.

Assay [4] deals with uptake of 3H-noradrenaline. Description: Inhibition of uptake of 3H-noradrenaline in mouse midbrain slices after in vivo (i.p.) administration. The settings on record: ip, at the dose 101 μmole/kg i.p., read-out: inhibition recorded (uptake of 3H-NA, in vivo). The protocol: as §2, with “It is not possible by experimental means to induce depressions in laboratory animals. In order to evaluate a possible anti-depressive effect of new substances biochemical-pharmacological test methods must be resorted to. One such method, which seems to give a good indication of the potential anti-depressive effects of the test substances, is described in Europ. […] The test” for “The test”

For `CN(C)CC=C(c1ccccc1)c1ccccc1`, the “antidepressive effect” value in assay [1] is reported as “have an antidepressive effect”.

With `CNC/C=C(/c1ccc(Br)cc1)c1cccnc1` [H, Z, oxalate, 3-(4-bromophenyl)-N-methyl-3-(3-pyridyl)-allylamine], the 50% effect level in assay [2] (ED50) was put at a dose of 18 µmol/kg. Moreover, the EC50 in assay [3] came out at 500 nM.

As to `CNC/C=C(/c1ccc(Br)cc1)c1cccnc1` [H, Z, hydrochloride, 3-(4-bromophenyl)-N-methyl-3-(3-pyridyl)-allylamine], the inhibition at 101 µmol/kg in assay [4] was 38%. Also, the “Uptake of 14C-5-HT, in vivo ED50” value in assay [2] (30 min) was found to be 15.2 μmole/kg i.p.

In assay [2], `CNCC=C(c1ccc(Br)cc1)c1cccnc1` [H, mixture, oxalate, 3-(4-bromophenyl)-N-methyl-3-(3-pyridyl)-allylamine] returned an ED50 of 32 µmol/kg. The compound further showed an EC50 in assay [3] of 500 nM.

The values above are taken from US4186202A, “Phenyl-pyridylamine derivatives” (priority 1974, dated 1980).
